Laboratory results as given in patent US20070148703A1, “Method of screening remedy for breast cancer” (Genomembrane, Inc., priority 2003, published 2007).
Several values for one entry are separate records, joined by “and”; a condition that tells them apart may be missing. Identical values can stand only once.

Experiments:
Assay type in all cases: cell-based, human
[1] = system: MCF-7 cells; test: MCF-7 cell proliferation with estrone-3-sulfate or estradiol, with or without BSP
Experimental: It was examined whether cell proliferation promoting effect on MCF-7 cells (ATCC-HTB22) by estrone-3-sulfate is inhibited by suppressing intracellular accumulation of estrone-3-sulfate. MCF-7 cells were seeded on a 96-well plate at a concentration of 8×10^4 cells/cm^2, and cultured for 1 day. Then, a medium containing estrone-3-sulfate (Sigma Chemicals) at various concentrations, ranging from 10 pM to 10 μM, and 100 μM of bromosulfophtalein (BSP: Sigma Chemicals), and a medium containing estradiol (Sigma Chemicals) at various concentrations, ranging from 1 pM to 10 nM, and 100 μM of BSP were added respectively, and culture was conducted for 3 more days. Subsequently, cell amount was measured.
However, this is considered to be estrogen activity by BSP itself or metabolite thereof. This effect decreased relatively with the increase of estrogen concentration. […] Accordingly, it is considered that the uptake of estrone-3-sulfate into the cells was inhibited by BSP, and that of estradiol, which is highly lipid-soluble, was not inhibited, and therefore there was no change in cell proliferation promoting effect.

[2] = system: T-47D cells; test: Inhibition of [3H] estrone-3-sulfate uptake by T-47D cells
Experimental: The cell suspension and a solution containing a radiolabeled test compound in the transport medium were separately incubated at 37° C. for 20 min, then transport was initiated by mixing them. […] Each cell pellet was solubilized in 3 N KOH, and neutralized with HCl. Then, the associated radioactivity was measured by means of a liquid scintillation counter using Clearsol-1 (Nacalai tesque) as a liquid scintillation fluid.
To characterize the substrate specificity of the transport system, the inhibitory effects of hormones, their conjugated metabolites, and various organic compounds on [^3H] estrone-3-sulfate uptake by T-47D cells were examined. The results are shown in (Table 1). In Table 1, values in control (%) are indicated as the ratio in comparison to uptake amount of estrone-3-sulfate in control which was set at 100%. Each value represents the mean±S.E.M. (n=4), and *P<0.05 indicates comparison to control (Student's test).

[3] = system: T-47D cells; test: T-47D cell proliferation assay
Experimental: (a) T-47D cells were seeded at a density of 8,000 cells/well and cultured. 24 hours after seeding (day 1), estradiol (1 pM, closed triangles), estrone-3-sulfate (100 nM, closed circles), DMSO (0.1, open triangles) or water (open circles) was added. After the designated number of days, T-47D cells were trypsinized and counted.
(b) T-47D cells were proliferated in the presence of various concentrations of estradiol (closed triangles) or estrone-3-sulfate (closed circles), ranging from 10^−16 to 10^−11 M, or from 10^−11 to 10^−6 M, respectively. The cell numbers were counted at day 6 after seeding. Each value represents the mean±S.E.M. (n=3).
T-47D cells were routinely proliferated in RPMI 1640 medium (Sigma Chemicals) containing phenol red and 10% FCS in a humidified incubator at 37° C. and 5% CO2. For the proliferation assay, FCS was incubated with 0.5% dextran-coated charcoal (DCC) at 4° C. overnight, then the medium was decanted and DCC was filtered off (0.2 μm) to remove steroid hormones. This procedure was repeated three times. Then T-47D cells were seeded into 96-well plates at a density of 8,000 cells/well in phenol red-free RPMI 1640 medium containing 2.5% DCC-treated FCS. […] At designated days after seeding, the cells were treated with trypsin, and cell numbers were counted.

[4] = system: T-47D cells; test: Uptake of estrone-3-sulfate by T-47D cells (time course, cation and concentration dependence); details: 5.1 nM to 50 μM, 37° C., 10 min, saturable uptake; mean±S.E.M.
Experimental: Cultured T-47D cells were incubated at 37° C. over 35 min in medium containing [^3H] estrone-3-sulfate (7.1 nM) with (open circles) or without (closed circles) 1 mM unlabeled estrone-3-sulfate. Each value represents the mean±S.E.M. (n=4). When the error bars are not shown, they are smaller than the symbols.
The uptake rate of [^3H] estrone-3-sulfate (7.1 nM) for 10 min was measured in the presence or absence of extracellular Na^+. Extracellular Na^+ was replaced with K^+, Li^+, or N-methylglucamine^+ (NMG^+). Each value represents the mean±S.E.M. (n=4).
The uptake of estrone-3-sulfate at various concentrations, ranging from 5.1 nM to 50 μM, was measured at 37° C. for 10 min. […]
Transport experiments were performed as described previously (Tamai et al., 2001). […] Then, the associated radioactivity was measured by means of a liquid scintillation counter using Clearsol-1 (Nacalai tesque) as a liquid scintillation fluid.
(§1) Cellular protein content was determined according to the method of Bradford by using a BioRad protein assay kit (Hercules) with bovine serum albumin as the standard (Bradford, 1976). […] All data were expressed as means±S.E.M., and statistical analysis was performed by the use of Student's t test with P<0.05 as the criterion of significance. […]

[5] = system: T-47D cells; test: Uptake of DHEAS by T-47D cells (time course, concentration dependence); details: 10.3 nM to 100 μM, 37° C., 10 min, saturable uptake
Experimental: The uptake of DHEAS at various concentrations, ranging from 10.3 nM to 100 μM, was measured at 37° C. for 10 min. The saturable uptake was obtained after subtraction of the uptake in the presence of excess of unlabeled DHEAS (5 mM) and used for the evaluation of kinetic constants by nonlinear least-squares analysis. […] Each value represents the mean±S.E.M. (n=4). When the error bars are not shown, they are smaller than the symbols.
Transport experiments were performed as described previously (Tamai et al., 2001). After cultivation of T-47D cells in 15 cm dishes, the cells were harvested and suspended in the transport medium containing 125 mM NaCl, 4.8 mM KCl, 5.6 mM D-glucose, 1.2 mM CaCl2, 1.2 mM KH2PO4, 1.2 mM MgSO4 and 25 mM Hepes, adjusted to pH 7.4. […] Then, the associated radioactivity was measured by means of a liquid scintillation counter using Clearsol-1 (Nacalai tesque) as a liquid scintillation fluid.
as §1

[6] = inhibitor 100 μM, mean±S.E.M. (n=4)
[7] = inhibitor 1000 μM, mean±S.E.M. (n=4)
[8] = inhibitor 5 μM, mean±S.E.M. (n=4)
[9] = inhibitor 50 μM, mean±S.E.M. (n=4)

Molecule	[3H] estrone-3-sulfate uptake, Control (%) [2, 6]	[3H] estrone-3-sulfate uptake, Control (%) [2, 7]	[3H] estrone-3-sulfate uptake, Control (%) [2, 8]	[3H] estrone-3-sulfate uptake, Control (%) [2, 9]	inhibitory effect on [3H] estrone-3-sulfate uptake, in words ([2]; concentration not given)	also measured
O=C1OC(c2ccc(O)c(S(=O)(=O)O)c2)(c2ccc(O)c(S(=O)(=O)O)c2)c2c(Br)c(Br)c(Br)c(Br)c21 [Bromosulfophtalein]	18.9 ± 2.8 * %	14.2 ± 1.2 * %	–	–	–	cell proliferation of MCF-7 cells with 100 μM BSP ([1]; 100 μM BSP added simultaneously, low estrone-3-sulfate concentration): cell proliferation promoting effect was observed; cell proliferation promoting effect by BSP ([1]; 100 μM BSP plus 10 μM estrone-3-sulfate): inhibited; cell proliferation promoting effect by BSP ([1]; 100 μM BSP plus estradiol): no change; [3H] estrone-3-sulfate uptake, Control (%) ([2]; inhibitor 100 μM, mean±S.E.M. (n=4), listed as bromosulfophthalein): 18.9%
C[C@]12CC[C@H](O)CC1=CC[C@@H]1[C@@H]2CC[C@]2(C)C(=O)CC[C@@H]12 [Dehydroepiandrosterone]	–	–	75.6 ± 3.8 * %	44.8 ± 8.0 * %	–	–
C[C@H]1O[C@@H](O[C@H]2[C@@H](O)C[C@H](O[C@H]3[C@@H](O)C[C@H](O[C@H]4CC[C@@]5(C)[C@H](CC[C@@H]6[C@@H]5C[C@@H](O)[C@]5(C)[C@@H](C7=CC(=O)OC7)CC[C@]65O)C4)O[C@@H]3C)O[C@@H]2C)C[C@H](O)[C@@H]1O [Digoxin]	–	–	–	–	no effect	[3H] estrone-3-sulfate uptake, Control (%) ([2]; inhibitor 100 μM, DMSO 1%, vs Control (DMSO 1%)): 90.3 ± 3.5%; [3H] estrone-3-sulfate uptake, Control (%) ([2]; inhibitor 1000 μM, DMSO 1%, vs Control (DMSO 1%)): 94.8 ± 4.4%
C[C@]12CC[C@@H]3c4ccc(O)cc4CC[C@H]3[C@@H]1CC[C@@H]2O[C@@H]1O[C@H](C(=O)O)[C@@H](O)[C@H](O)[C@H]1O [Estradiol-17β-glucuronide]	–	–	73.8 ± 8.7%	90.4 ± 11.5%	–	inhibitory effect on [3H] estrone-3-sulfate uptake, in words ([2]; 50 μM): no effect
C[C@]12CC[C@@H]3c4ccc(O)cc4CC[C@H]3[C@@H]1CC[C@@H]2O [Estradiol]	–	–	76.9 ± 4.8 * %	45.7 ± 5.3 * %	–	–
C[C@]12CC[C@@H]3c4ccc(OS(=O)(=O)O)cc4CC[C@H]3[C@@H]1CCC2=O [Estrone-3-sulfate]	–	–	34.7 ± 4.3 * %	6.6 ± 0.9 * %	–	cell proliferation promoting effect on MCF-7 cells ([1]; estrogen only (positive control), 3 days): cell proliferation promoting effect was observed; proliferation of T-47D cells compared with solvent alone ([3]; 100 nM): stimulated; EC50 ([3]; 6 days after seeding, nonlinear regression analysis, read-out: median effective concentration (EC50), stimulation of T-47D proliferation): ~17.1 nM and 17.1 nM; [3H] estrone-3-sulfate uptake, Control (%) ([2]; inhibitor 5 μM, mean±S.E.M. (n=4), listed as estrone-3-sulfate): 34.7%; [3H] estrone-3-sulfate uptake, Control (%) ([2]; inhibitor 50 μM, mean±S.E.M. (n=4), listed as estrone-3-sulfate): 6.6%; Km [4]: 3.9 ± 0.78 µM; Vmax of estrone-3-sulfate uptake [4]: 576.3±32.9 pmol/mg protein/10 min
C[C@]12CC[C@@H]3c4ccc(O)cc4CC[C@H]3[C@@H]1CCC2=O [Estrone]	–	–	78.8 ± 3.3 * %	64.8 ± 7.5 * %	–	–
CC1(C)S[C@@H]2[C@H](NC(=O)Cc3ccccc3)C(=O)N2[C@H]1C(=O)O [Penicillin G]	83.2 ± 2.0 * %	75.9 ± 10.5%	–	–	slight inhibitory effects	–
CCCN(CCC)S(=O)(=O)c1ccc(C(=O)O)cc1 [Probenecid]	103.2 ± 10.2%	79.1 ± 3.8 * %	–	–	slight inhibitory effects	–
O=C(O)c1ccccc1O [Salicylate]	94.9 ± 6.0%	82.7 ± 7.3%	–	–	no effect	–
C[C@H](CCC(=O)NCCS(=O)(=O)O)[C@H]1CC[C@H]2[C@@H]3[C@H](O)C[C@@H]4C[C@H](O)CC[C@]4(C)[C@H]3C[C@H](O)[C@]12C [Taurocholic acid]	69.3 ± 2.7 * %	24.1 ± 2.3 * %	–	–	–	[3H] estrone-3-sulfate uptake, Control (%) ([2]; inhibitor 100 μM, mean±S.E.M. (n=4), listed as taurocholic acid): 69.3%
CC[N+](CC)(CC)CC [Tetraethylammonium]	87.4 ± 1.5 * %	112.7 ± 18.6%	–	–	no effect	–
Nc1ccc(C(=O)NCC(=O)O)cc1 [p-Aminohippuric acid]	87.8 ± 1.5%	112.7 ± 18.6%	–	–	no effect	–
Dehydroepiandrosterone sulfate	–	–	66.4 ± 5.7 * %	27.0 ± 7.6 * %	–	[3H] estrone-3-sulfate uptake, Control (%) ([2]; inhibitor 50 μM, mean±S.E.M. (n=4), listed as DHEAS): 44.8%; Km [5]: 62.5 ± 21.1 µM; Vmax of DHEAS uptake [5]: 1893±315.7 pmol/mg protein/10 min
